# Laboratory results as given in patent publication US20190002436A1, “RESPIRATORY SYNCYTIAL VIRUS INHIBITORS” (MEDIVIR AB, priority 2015, published 2019).
# Read-outs that look alike come from different tables or passages of the source.
# System: RSV (Long)
# Assay: RSV cytopathic effect (CPE)-based viral replication assay
# Format: cell-based, respiratory syncytial virus (RSV)
# Details: HEp-2 cells infected with RSV Long at MOI 0.015, 3 days at 37° C., cell viability by CellTiter-Glo luminescence, read-out: EC50 (nm)
# Summary of the method: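 HEp-2 cells, 2,500 per well in DMEM with 2% heat-inactivated FBS, treated with 10-point compound dilutions and infected with RSV Long at MOI 0.015. After 3 days at 37 °C, 5% CO2, viability read by CellTiter-Glo luminescence; EC50 derived from CPE data.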
# [1] = human respiratory syncytial virus, HEp-2, 72 h
EC50 [1] [nM],EC50 [nM],SMILES
2.5,,"CS(=O)(=O)N(c1ccc(-c2c(CN3C(=O)C4(CCN(C(=O)C5(C(F)(F)F)CC5)CC4)c4ccncc43)ncc3ccccc23)cn1)S(C)(=O)=O [Example 166d, N-(methylsulfonyl)-N-(5-(3-((2′-oxo-1-(1-(trifluoromethyl)cyclopropanecarbonyl)spiro[piperidine-4,3′-pyrrolo[2,3-c]pyridin]-1′(2′H)-yl)methyl)isoquinolin-4-yl)pyridin-2-yl)methanesulfonamide]"
7.2,,COC(=O)NC1CC2(C1)C(=O)N(Cc1ncc3ccccc3c1-c1ccc(C#N)nc1)c1ccccc12 (stereo not drawn) [Example 84-1]
7.2,,"O=C(N1CCOCC1)N1CC2(C1)C(=O)N(Cc1ncc3ccccc3c1-c1cccnc1)c1ccccc12 [Example 148b, 1-(morpholine-4-carbonyl)-1′-((4-(pyridin-3-yl)isoquinolin-3-yl)methyl)spiro[azetidine-3,3′-indolin]-2′-one]"
,5.1,"CS(=O)(=O)Nc1ccc(-c2c(CN3C(=O)C4(CN(C(=O)C5(N)CC5)C4)c4ccccc43)ncc3ccccc23)cc1 [Example 132b, N-(4-(3-((1-(1-aminocyclopropanecarbonyl)-2′-oxospiro[azetidine-3,3′-indolin]-1′-yl)methyl)isoquinolin-4-yl)phenyl)methanesulfonamide]"
2.9,,"COC(=O)N1CC2(C1)C(=O)N(Cc1ncc3cc(Cl)ccc3c1-c1cccnc1)c1cnccc12 [Example 161c, methyl 1′-((7-chloro-4-(pyridin-3-yl)isoquinolin-3-yl)methyl)-2′-oxo-1′,2′-dihydrospiro[azetidine-3,3′-pyrrolo[2,3-c]pyridine]-1-carboxylate]"
19,,"CS(=O)(=O)c1ccc(-c2c(Cn3c(=O)n(C4CC4)c4ccncc43)ncc3ccccc23)cn1 [Example 70c, 1-Cyclopropyl-3-((4-(6-(methylsulfonyl)pyridin-3-yl)isoquinolin-3-yl)methyl)-1H-imidazo[4,5-c]pyridin-2(3H)-one]"
1.8,,"COC(=O)N1CCC2(CC1)C(=O)N(Cc1ncc3cc(Cl)ccc3c1-c1ccncc1)c1cnccc12 [Example 165b, Methyl 1′-((7-chloro-4-(pyridin-4-yl)isoquinolin-3-yl)methyl)-2′-oxo-1′,2′-dihydrospiro[piperidine-4,3′-pyrrolo[2,3-c]pyridine]-1-carboxylate]"
2.6,,"CC1(n2c(=O)n(Cc3ncc4ccccc4c3CCCCO)c3cnccc32)CC1 [Example 52b, 3-((4-(4-hydroxybutyl)isoquinolin-3-yl)methyl)-1-(1-methylcyclopropyl)-1H-imidazo[4,5-c]pyridin-2(3H)-one]"
0.86,,"CS(=O)(=O)N1CCC2(CC1)C(=O)N(Cc1ncc3ccccc3c1-c1ccc(F)nc1)c1cnccc12 [Example 110b, 1′-((4-(6-fluoropyridin-3-yl)isoquinolin-3-yl)methyl)-1-(methylsulfonyl)spiro[piperidine-4,3′-pyrrolo[2,3-c]pyridin]-2′(1′H)-one]"
2,,"NC(=O)N1CCC2(CC1)C(=O)N(Cc1ncc3ccccc3c1-c1cccnc1)c1cnccc12 [Example 135b, 2′-oxo-1′-((4-(pyridin-3-yl)isoquinolin-3-yl)methyl)-1′,2′-dihydrospiro[piperidine-4,3′-pyrrolo[2,3-c]pyridine]-1-carboxamide]"
35,,"NC1(C(=O)N2CCC3(CC2)C(=O)N(Cc2ncc4ccccc4c2CCCCO)c2cnccc23)CC1 [Example 39b, 1-(1-Aminocyclopropanecarbonyl)-1′-((4-(4-hydroxybutyl)isoquinolin-3-yl)methyl)spiro[piperidine-4,3′-pyrrolo[2,3-c]pyridin]-2′(1′H)-one]"
1.3,,"CS(=O)(=O)N1CCC2(CC1)C(=O)N(Cc1ncc3cc(Cl)ccc3c1-c1cccnc1)c1cnccc12 [Example 160c, 1′-((7-chloro-4-(pyridin-3-yl)isoquinolin-3-yl)methyl)-1-(methylsulfonyl)spiro[piperidine-4,3′-pyrrolo[2,3-c]pyridin]-2′(1′H)-one]"
8600,,"NC1(c2ccc3c(CCCCO)c(Cn4c(=O)n(C5CC5)c5ccncc54)ncc3c2)COC1 [Example 46g, 3-((7-(3-Aminooxetan-3-yl)-4-(4-hydroxybutyl)isoquinolin-3-yl)methyl)-1-cyclopropyl-1H-imidazo[4,5-c]pyridin-2(3H)-one]"

# Further lines, the compound ahead of its results:
SMILES,EC50 [1] [nM],EC50 [nM]
O=C1CC(c2c(Cn3c(=O)n(C4CC4)c4ccncc43)ncc3ccccc23)CN1 (stereo not drawn) [Example 2020],,80
"COC(=O)N1CC2(CC(n3c(=O)n(Cc4ncc5ccccc5c4CCCCO)c4ccccc43)C2)C1 [Example 17, Methyl 6-(3-((4-(4-hydroxybutyl)isoquinolin-3-yl)methyl)-2-oxo-2,3-dihydro-1H-benzo[d]imidazol-1-yl)-2-azaspiro[3.3]heptane-2-carboxylate]",58,
COC(=O)N1CC2(C1)C(=O)N(Cc1nc(C(F)F)c3ccccc3c1-c1cccnc1)c1ccccc12 [Example 2003],1000,
"NC(=O)N1CC2(C1)C(=O)N(Cc1ncc3ccccc3c1CCCCO)c1ccccc12 [Example 55, 1′-((4-(4-hydroxybutyl)isoquinolin-3-yl)methyl)-2′-oxospiro[azetidine-3,3′-indoline]-1-carboxamide]",4.6,
"N#Cc1ccc2c(CCCCO)c(Cn3c(=O)n(C4CC4)c4ccncc43)ncc2c1 [Example 25, 3-((1-cyclopropyl-2-oxo-1H-imidazo[4,5-c]pyridin-3(2H)-yl)methyl)-4-(4-hydroxybutyl)isoquinoline-7-carbonitrile]",280,
"NC1(NC(=O)N2CC3(C2)C(=O)N(Cc2ncc4ccccc4c2-c2cccnc2)c2ccccc23)CC1 [Example 155, N-(1-aminocyclopropyl)-2′-oxo-1′-((4-(pyridin-3-yl)isoquinolin-3-yl)methyl)spiro[azetidine-3,3′-indoline]-1-carboxamide]",2,
"O=c1n(Cc2ncc3ccccc3c2CCCC(F)(F)F)c2cnccc2n1C1CC1 [Example 8e, 1-cyclopropyl-3-((4-(4,4,4-trifluorobutyl)isoquinolin-3-yl)methyl)-1H-imidazo[4,5-c]pyridin-2(3H)-one]",9,
"O=C1N(Cc2ncc3ccccc3c2CCCCO)c2ccccc2C12CNC2 [Example 40, 1′-((4-(4-Hydroxybutyl)isoquinolin-3-yl)methyl)spiro[azetidine-3,3′-indolin]-2′-one]",110,
COC(=O)N1CC2(C1)C(=O)N(Cc1ncc3cc(C#N)c(F)cc3c1-c1cccnc1)c1ccccc12 [Example 2039],46,
"CS(=O)(=O)N1CC2(C1)C(=O)N(Cc1ncc3ccccc3c1CCCCO)c1ccccc12 [Example 42, 1′-((4-(4-Hydroxybutyl)isoquinolin-3-yl)methyl)-1-(methylsulfonyl)spiro[azetidine-3,3′-indolin]-2′-one]",4.6,
"COC(=O)N1CCC(n2c(=O)n(Cc3ncc4ccccc4c3CCCC(F)(F)F)c3cnccc32)CC1 [Example 9b, methyl 4-(2-oxo-3-((4-(4,4,4-trifluorobutyl)isoquinolin-3-yl)methyl)-2,3-dihydro-1H-imidazo[4,5-c]pyridin-1-yl)piperidine-1-carboxylate]",4,
NC1(C(=O)N2CCC3(CC2)C(=O)N(Cc2ncc4ccccc4c2-c2ncco2)c2cnccc23)CC1 [Example 2021],690,
CC1(S(=O)(=O)N2CC3(C2)C(=O)N(Cc2ncc4ccccc4c2-c2ccc(C#N)nc2)c2ccccc23)CC1 [Example 61],4.4,
"COC(=O)N1CC2(C1)C(=O)N(Cc1ncc3ccccc3c1-c1ccc(N)nc1)c1ccccc12 [Example 104, methyl 1′-((4-(6-aminopyridin-3-yl)isoquinolin-3-yl)methyl)-2′-oxospiro[azetidine-3,3′-indoline]-1-carboxylate]",1.5,
CNC1(C(=O)N2CC3(C2)C(=O)N(Cc2ncc4ccccc4c2-c2ccc(NS(C)(=O)=O)cn2)c2ccccc23)CC1 [Example 2005],230,
"NC1(CC(=O)N2CC3(C2)C(=O)N(Cc2ncc4ccccc4c2-c2cccnc2)c2ccccc23)CC1 [Example 156, 1-(2-(1-aminocyclopropyl)acetyl)-1′-((4-(pyridin-3-yl)isoquinolin-3-yl)methyl)spiro[azetidine-3,3′-indolin]-2′-one]",13,
CS(=O)(=O)Nc1cncc(-c2c(CN3C(=O)C4(CN(C(=O)C5(N)CC5)C4)c4ccccc43)ncc3ccccc23)c1 [Example 2006],26,
"COC(=O)N1CC2(C1)C(=O)N(Cc1ncc3ccccc3c1-c1ccccn1)c1ccccc12 [Example 102, Methyl 2′-oxo-1′-((4-(pyridin-2-yl)isoquinolin-3-yl)methyl)spiro[azetidine-3,3′-indoline]-1-carboxylate]",194,
"NC1(CC(=O)N2CCC3(CC2)C(=O)N(Cc2ncc4ccccc4c2-c2cccnc2)c2cnccc23)CC1 [Example 145, 1-(2-(1-Aminocyclopropyl)acetyl)-1′-((4-(pyridin-3-yl)isoquinolin-3-yl)methyl)spiro[piperidine-4,3′-pyrrolo[2,3-c]pyridin]-2′(1′H)-one]",8.1,
CS(=O)(=O)N1CCC2(CC1)C(=O)N(Cc1ncc3ccccc3c1C1CNC(=O)C1)c1cnccc12 (stereo not drawn) [Example 2018],,50
COC(=O)C1CC2(C1)C(=O)N(Cc1ncc3ccccc3c1-c1ccc(C3(N)CC3)nc1)c1cnccc12 (stereo not drawn) [Example 2002],5.4,
"NCC(=O)N1CCC2(CC1)C(=O)N(Cc1ncc3ccccc3c1-c1cccnc1)c1cnccc12 [Example 143, 1-(2-aminoacetyl)-1′-((4-(pyridin-3-yl)isoquinolin-3-yl)methyl)spiro[piperidine-4,3′-pyrrolo[2,3-c]pyridin]-2′(1′H)-one]",10,
"O=c1n(Cc2ncc3ccccc3c2CCCCO)c2cnccc2n1-c1ccc(F)cc1 [Example 4c, 1-(4-fluorophenyl)-3-((4-(4-hydroxybutyl)isoquinolin-3-yl)methyl)-1H-imidazo[4,5-c]pyridin-2(3H)-one]",20,
